Assays:
[1] = tested on: LasR and RhlR; test: Receptor specific reporter assays for LasR and RhlR activity (stated in words); type: cell-based, P. aeruginosa
Text: wherein R may be H or OH, and two or more of the R substituents of a given compound are OH; R′ is H or OH; and R″ is H or OH. […] A variety of compounds were obtained and tested for activity (e.g., inhibition of receptor specific reporter assays for LasR and RhlR activity).
(§1) A two plasmid E. coli reporter system was constructed, in which LasR or RhlR was expressed under an arabinose inducible promoter (e.g., LasR or RhlR was cloned into a pBAD-A vector and expressed upon addition of arabinose) in the presence of a LasR-dependent or RhlR-dependent promoter fused to luciferase (e.g., cloned into a pCS26 vector). Upon the addition of arabinose and in the presence of AI, LasR or RhlR were expressed, formed a complex with the cognate AI, underwent dimerization, and activated transcription of the reporter construct. All potential inhibitors were tested at 100 μM. The percent activity was reported relative to wild-type (100%).

[2] = tested on: P. aeruginosa PA14 ΔlasI ΔrhII CRISPR adaptation; test: CRISPR adaptation (new spacer integration by PCR); type: cell-based; conditions: ΔlasI ΔrhII strain; AIs 2 μM 3-O—C12-HSL+10 μM C4-HSL given together; Baicalein 100 μM with AIs; vs DMSO
Experimental: FIG. 3. QS inhibitors block CRISPR adaptation and disable QS-mediated bacterial immunity. A P. aeruginosa PA14 ΔlasI ΔrhII QS deficient strain was transformed with foreign DNA (e.g., a CRISPR-targeted plasmid). A single colony from the transformation was re-streaked on selective media containing either DMSO (as a control), AIs (2 μM 3-O—C12-HSL+10 μM C4-HSL), or AIs and a QS inhibitor (2 μM 3-O—C12-HSL+10 μM C4-HSL+100 μM Baicalein). Single colonies were tested for integration of new inserted spacers (conferring immunity) against the CRISPR-targeted plasmid. In particular, PCR primers were designed to amplify specific genomic regions into which spacers were inserted. Primers complementary to the region upstream of the CRISPR region and to the second spacer region were designed, and PCR amplification was utilized to test for the presence of the newly inserted spacer (a process referred to as adaptation).
A P. aeruginosa PA14 ΔlasI ΔrhII QS deficient strain was transformed with foreign DNA (e.g., a CRISPR-targeted plasmid such as pCR2SP1, as described above). A single colony from the transformation was re-streaked on selective medium, e.g., LB medium containing 50 μg/ml gentamicin and either DMSO (as a control), AIs (2 μM 3-O—C12-HSL+10 μM C4-HSL), or both AIs and a QS inhibitor (2 μM 3-O—C12-HSL+[…] C4-HSL+100 μM Baicalein QS inhibitor) and incubated at 37° C. O/N. Single colonies were tested for integration of new immunity spacers against the CRISPR-targeted plasmid by PCR using iProof High-Fidelity DNA Polymerase (Bio-Rad) and primers CR2SP check F+R upstream of the CRISPR2 region and in the second spacer. Thus, PCR primers were designed to amplify the genomic region in which the new spacer was present. Primers targeting a sequence upstream of the CRISPR-Cas region and targeting the second spacer region were designed, and PCR amplification was utilized to test for the presence of the new inserted spacer (a portion of the plasmid sequence inserted between the CRISPR locus and spacers). […]

[3] = target: T1, LasR (Pseudomonas aeruginosa, UniProt P25084); test: Two plasmid E. coli LasR reporter (luciferase); type: cell-based, P. aeruginosa; conditions: read-out: Percent Activity (LasR reporter)
T1 construct: expressed in transfected cells; host or cells: E. coli TOP10 carrying pBAD-A 6xHIS-lasR and pCS26 plasB-luxCDABE
T1 sequence (P25084 whole entry): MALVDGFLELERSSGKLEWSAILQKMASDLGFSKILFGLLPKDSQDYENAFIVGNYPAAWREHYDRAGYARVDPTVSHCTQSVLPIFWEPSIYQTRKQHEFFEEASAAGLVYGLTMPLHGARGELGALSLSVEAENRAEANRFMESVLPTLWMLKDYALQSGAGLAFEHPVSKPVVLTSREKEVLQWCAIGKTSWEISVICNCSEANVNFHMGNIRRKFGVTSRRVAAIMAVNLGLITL
Text: as §1
A sample experimental protocol for the RhlR reporter (see, e.g., Table 5A2) or for the LasR reporter (see, e.g., Table 5A1).
A clean plate was filled with water, 70% ethanol, LB, and primed with cultured cells to ensure that initial dispensing led to the appropriate volume of cells being added to the wells. 20 μL of this solution was dispensed into appropriate wells in a 384-well plate that contained small molecule antagonists. 20 μL of this solution was dispensed into wells intended for a positive control that contain only DMSO. To the culture that was saved for negative control, arabinose was added to 0.1%. An equal volume of DMSO was added to the culture, relative to the amount of AI added to the other culture. 20 μL of culture was dispensed into wells intended for a negative control that contained only DMSO and no small molecule QS inhibitors. Plates were incubated at 30° C. in the plate shaker. Plates were read using a 384 LUM/OD 600 setting on the plate reader after 4 hours of induction.
For data analysis, the average and standard deviation for each of the control groups were determined. In a screen, for each data point, the number of standard deviations from the mean was determined to determine if the inhibitor was a “hit”. In a dose response curve, for each data point, the percent inhibition was determined: 1−(X/M), where X=single data point and M=is the mean of the AI only control group. The dose response curve was then plotted as a function of % inhibition (y) v. [inhibitor] on a log scale (x).

[4] = tested on: Wild-type P. aeruginosa pyocyanin production; test: Pyocyanin virulence factor production; type: cell-based; conditions: 100 μM overnight, back diluted, grown 18 hrs with inhibitor
Experimental: FIG. 6. QS inhibitors reduce the level of virulence factor production in P. aeruginosa. The ability of the small molecule inhibitors to reduce virulence factor production by monitoring pyocyanin production was assessed.
The ability of the small molecule QS inhibitors to reduce virulence factor production by monitoring production of pyocyanin as a representative virulence factor was assessed. Wild-type P. aeruginosa was incubated with the indicated molecules at 100 μM overnight, back diluted, and grown for 18 hrs in the presence of QS inhibitor.
By varying the concentration of QS inhibitors, dose dependence curves were generated.

[5] = target: T1, LasR; test: 10-point autoinducer dose response on LasR reporter with QS inhibitor (competition); type: cell-based, P. aeruginosa; conditions: inhibitor at 100 μM; increasing concentrations of AI
Experimental: FIG. 4. QS inhibitors bind non-competitively to LasR. A 10-point dose response curve with increasing concentrations of autoinducer 3-O—C12-HSL (AI) was generated for a variety of QS small molecule inhibitors. In this figure, curve C12 (filled circle) corresponds to the absence of inhibitor. […] Instead, the inhibitors bind elsewhere on LasR to prevent LasR-dependent transcription.
Using known molecular biology techniques, assays were performed to determine whether binding of the small molecule QS inhibitors and the AIs occurred by a competitive or by another inhibitory mechanism (see, e.g., FIG. 4).
Thus, a 10-point dose response curve with concentrations of AI ranging from 10 pM to 5 nM was generated for a variety of QS small molecule inhibitors. Curve C12 (dotted filled line) corresponds to the absence of inhibitor. […] Instead, the inhibitors bind elsewhere on LasR to prevent LasR-dependent transcription.

For `O=c1cc(-c2ccccc2)oc2cc(O)c(O)c(O)c12` [Molecule 46, Baicalein], the “activity (inhibition of receptor specific reporter assays for LasR and RhlR activity)” value [1] was “inhibit both LasR and RhlR”, the “CRISPR adaptation (fraction of cells in the colony that adapted)” value [2] was “blocked the positive effects of AIs on CRISPR adaptation” and the remaining activity at 100 µM [3] was 46.7%. For the same compound, the pyocyanin production [4] was “inhibit pyocyanin to varying degrees” and the “competition with autoinducer 3-O—C12-HSL for LasR” value [5] was “did not compete”.
